Assay results: patent publication US20160304957A1, “TREATMENT AND MODULATION OF GENE EXPRESSION AND SKIN AGING” (DSM NUTRITIONAL PRODUCTS LTD., priority 2006, published 2016)

Key:
Type in all cases: cell-based, human
MMP-1 [1] = assay: ELISA of MMP-1 release into cell culture supernatant of HaCaT cells; conditions: 1, 10, or 100 nM RA; unpublished observations
Protocol: HaCaT cells were supplemented with 0.5, 1.5, or 3 μM β-carotene for 2 days prior to UVA (270 kJ/m^2) irradiation. MMP-1 and TIMP-1 secretion 24 hours after irradiation was analyzed by ELISA. Each condition was represented by three replicates in the experiment. Values are means±standard error.
Release of MMP-1, and TIMP-1 into cell culture supernatant was determined by ELISA at 24 hours after irradiation. MMP-1 and TIMP-1 release was measured using MMP-1 and TIMP ELISA from CALBIOCHEM (San Diego, Calif., USA). The ELISAs were performed according to the manufacturer's instructions.

TIMP-1 = assay: QRT-PCR gene expression in HaCaT cells with or without UVA; conditions: vitamin E 50 μM
Protocol: (§1) HaCaT cells were obtained from Prof. Fusenig, German Cancer Research Centre, Heidelberg. […] The accuracy of cell counting was approximately 99%.
Vitamin E (RRR-α-tocopherol; DSM Nutritional Products, Kaiseraugst, Switzerland) stock solutions and vitamin E-containing media were prepared as described for β-carotene-containing solutions, except that vitamin E was dissolved in ethanol. In experiments addressing the vitamin E effect, vitamin E was used in a final concentration of 50 μM. Again, the solvent concentration was kept constant at 0.03% ethanol for all conditions.
On day 3 of the experiment, cells were washed six times with Ca/Mg-free PBS containing 2% BSA, and then irradiated with light with a Hönle sun lamp Sol 500 (Dr. Hönle, Plannegg, Germany) at a dose of 270 kJ/m^2 in Ca/Mg-free PBS (2 hour exposure time at […]). The experimental schedule was chosen because the cells had optimal UVA sensitivity after 48 hours in culture. […] Confluent cultures were much less sensitive to irradiation. […]
(§2) cDNA corresponding to 10 ng total RNA was used as template to quantify the relative RNA expression of the genes of interest by TaqMan® real time PCR.
The PCR analyses were carried out in triplicate and in a multiplex setup, using 18S rRNA as a calibrator gene. […] For quantification of the genes of interest, the primer concentrations were optimized for sensitivity of template detection. […] Regulation of gene expression was calculated as described in user bulletin #2 provided by the manufacturer. A threshold cycle (“CT”) is the first PCR cycle in which an amplification signal is detected. […] The δCT value describes the level of gene expression as the average PCR cycle, in which the gene of interest was detected first (CT value), subtracted by the CT value of the calibrator gene 18S rRNA (CTgene of interest−CTcalibrating gene), 18S rRNA served as a measure for the amount of template in the reaction. Routinely, 18S rRNA was detected between PCR cycle 12 and 13 (SE=standard error) A low δCT corresponds to a high mRNA level.

MMP-3 = assay: as above
Protocol: as §1
(§3) On day 3 of the experiment, cells were washed six times with Ca/Mg-free PBS containing 2% BSA, and then irradiated with light with a Hönle sun lamp Sol 500 (Dr. Hönle, Plannegg, Germany) at a dose of 270 kJ/m^2 in Ca/Mg-free PBS (2 hour exposure time at […]). The experimental schedule was chosen because the cells had optimal UVA sensitivity after 48 hours in culture. […] Confluent cultures were much less sensitive to irradiation.
(§4) After irradiation, the cells were supplied with fresh β-carotene-containing serum-free medium and kept in the incubator at 37° C., 5% CO2 until harvest of the samples. In experiments in which the half-life of ^1O2 was prolonged by D2O to enhance its effect, PBS was prepared in D2O, instead of in H2O, as it was done for the standard conditions described above. Cells were washed twice in D2O-PBS prior to irradiation in D2O-PBS. After irradiation, cells were maintained with fresh β-carotene-containing serum-free medium. Sham controls were treated in an identical manner, by placing them under the solar simulator but shielded from light.
(§5) Total RNA was isolated by using Trizol™ (Invitrogen, Basel, Switzerland) according to the instructions of the manufacturer. Random-primed cDNA was synthesized using the Superscript pre-amplification system for first strand cDNA synthesis (Invitrogen).
as §2
(§6) The PCR analyses were carried out in triplicate and in a multiplex setup, using 18S rRNA as a calibrator gene. The rRNA primers were used at a final concentration of 50 nM, the probe at 100 nM. For quantification of the genes of interest, the primer concentrations were optimized for sensitivity of template detection. […] PCR reactions were carried out for 40 cycles of 95° C. for 15 seconds and 60° C. for 1 minute in an ABI7700 (Applied Biosystems, Rotkreuz, Switzerland). Regulation of gene expression was calculated as described in user bulletin #2 provided by the manufacturer. A threshold cycle (“CT”) is the first PCR cycle in which an amplification signal is detected. Expression levels are given as δCT values. The δCT value describes the level of gene expression as the average PCR cycle, in which the gene of interest was detected first (CT value), subtracted by the CT value of the calibrator gene 18S rRNA (CTgene of interest−CTcalibrating gene), 18S rRNA served as a measure for the amount of template in the reaction. Routinely, 18S rRNA was detected between PCR cycle 12 and 13 (SE=standard error) A low δCT corresponds to a high mRNA level.

MMP-1 [2] = assay: as above
Protocol: as §1, §3, §4, §5, §2, §6

MMP-10 = assay: as above
Protocol: as §1, §3, §4, §5, §2, §6

[3] = vitamin E 50 μM with β-carotene 1.5 μM

| Compound | UVA-induced MMP-1 secretion (MMP-1 [1]) | UVA-suppressed TIMP-1 expression (TIMP-1) | cooperation with β-carotene in reducing UVA-induction of MMP-3 (MMP-3; [3]) | MMP-3 expression (MMP-3; vitamin E alone, 50 μM) | cooperation with β-carotene in reducing UVA-induction of MMP-1 (MMP-1 [2]; [3]) | MMP-1 expression (MMP-1 [2]; vitamin E alone, 50 μM) | cooperation with β-carotene in reducing UVA-induction of MMP-10 (MMP-10; [3]) | MMP-10 expression (MMP-10; vitamin E alone, 50 μM) |
| --- | --- | --- | --- | --- | --- | --- | --- | --- |
| CC1=C(/C=C/C(C)=C/C=C/C(C)=C/C(=O)O)C(C)(C)CCC1 [RA, retinoic acid] | no effect | – | – | – | – | – | – | – |
| Cc1c(C)c2c(c(C)c1O)CC[C@@](C)(CCC[C@H](C)CCC[C@H](C)CCCC(C)C)O2 [vitamin E, RRR-α-tocopherol] | – | restored | did not cooperate | no effect | did not cooperate | no effect | did not cooperate | no effect |
